Measured values taken from patent publication US9676758B2, “1-heteroaryl-indoline-4-carboxamides as modulators of GPR52 useful for the treatment or prevention of disorders related thereto” (Arena Pharmaceuticals, Inc., priority 2015, dated 2017).

Columns and labels:
male Sprague Dawley rats = assay: Plasma prolactin levels in rats (ELISA); type: in vivo, rat
Experimental: Another unwanted side effect of certain antipsychotics is hyperprolactinemia. To examine prolactin levels following the administration of a GPR52 agonist, male Sprague Dawley rats (Harlan Laboratories, San Diego, Calif.) were single-housed, handled, and moved to a private housing room one week prior to testing. Rats were individually handled and sham dosed P.O. for four days prior to testing. For an assessment of haloperidol (0.1 and 1 mg/kg P.O.) and Compound 13 (1, 10, and 100 mg/kg P.O.) on basal prolactin release, rats were dosed with acidic 20% HP-β-cyclodextrin (HBCD) or compound at 3 mL/kg P.O. in their housing room 60 minutes prior to harvest. For interaction studies, rats were dosed with 20% HBCD or Compound 13 (10 mg/kg P.O.) 90 minutes prior to harvest, and additionally with 20% HBCD vehicle or haloperidol (0.3 and 1 mg/kg P.O.) 60 minutes prior to harvest. Rats were individually taken to the harvest room, and trunk blood was collected into 4 mL EDTA tubes following live decapitation. Samples were stored on wet ice until collection was complete, then spun in a cooling centrifuge at 2400 rpm for 20 minutes. Plasma was collected and frozen for subsequent analysis using a Rat Prolactin ELISA kit (ALPCO Diagnostics: Cat#55-PRLRT-E01).
Briefly, frozen plasma was thawed on ice and mixed prior to initiation of the ELISA. Twenty-five microliters of sample plasma along with serially diluted standards (lyophilized purified rat prolactin diluted with rat prolactin calibrator/sample diluent), and calibrator/sample diluent used as a blank were placed in a 96-well plate provided with the ELISA kit. Samples, blank, and standards were measured in duplicate. […] Fifty microliters of stop solution (2M hydrochloric acid) was added to the wells prior to reading on a 96-well plate reader (SpectraMax® 340PC; Molecular Devices, Sunnyvale, Calif.) at […]. The quantity of prolactin in each sample was calculated using a standard curve.

male Sprague-Dawley rats [1] = assay: Rat basal locomotor activity; settings: 0.5, 1, 2, 5, 10, and 20 mg/kg P.O.
Experimental: Locomotor activity was assessed in a photocell monitoring caging system (Kinder Scientific MotorMonitor System, Kinder Scientific, Poway, Calif.). Each cage consisted of a standard plastic rodent cage (24×45.5 cm) placed inside a stainless steel frame. Infrared photocell beams were located across the long axis of the frame. Interruption of a photocell beam due to movement of the animal in front of a beam was recorded and used as a measure of ambulatory activity. Photocell beam interruptions were automatically recorded by a computer system. Perforated cage tops were placed on top of the test enclosures during testing.
Activity was then measured for the following 30 minutes. Animals were naïve to the testing apparatus prior to performing the test. Activity is expressed as the total number of ambulations over the 30 minutes of locomotor testing (i.e., 30-60 minutes post-injection).

[2] = Brain penetration (plasma and brain exposure); type: in vivo, mouse; settings: PO dose 3 mg/kg; male C57BL6 mice; 60 minute time point
Experimental: Plasma and brain exposure were evaluated to determine the brain penetration of compounds described herein. Male C57BL6 mice were administered a single per oral (PO) dose of compound at 3 or 10 mg/kg (as a free base) formulated in 20% HPCD in 0.9% NaCl. Blood and brain samples were collected 60 minutes post-dose (n=3-6 animals). Blood was collected via cardiac puncture and stored on ice prior to the separation of plasma by centrifugation. Brains were extracted from the cranium and frozen on dry ice. Tissue samples were stored at approximately −80° C. prior to bioanalytical analysis.
Analyte plasma and brain concentrations were determined by LC/MS/MS.

male Sprague-Dawley rats [3] = assay: Amphetamine-stimulated locomotor activity in rats; type: in vivo, rat; settings: 0.5, 1, 2, 5, 10, and 20 mg/kg P.O., amphetamine 0.5 mg/kg SC, FIG. 24
Experimental: Fifteen minutes later, rats were injected with amphetamine (0.5 mg/kg SC in volume of 1 mL/kg). Activity was then measured for 90 minutes.

male Sprague-Dawley rats [4] = assay: Prepulse inhibition of the startle response in rats; type: in vivo, rat; settings: 5 or 20 mg/kg P.O., FIGS. 26A-B
Experimental: Prepulse inhibition testing was conducted in enclosed startle chambers (Kinder Scientific StartleMonitor System, Kinder Scientific, Poway, Calif.) in which animals were placed into restrainers secured onto startle-sensing plates. A constant background white noise of 65 dB was audible in the chambers throughout testing. […]
For each animal, mean startle amplitude for each trial type during the 35-trial block was calculated, and percent prepulse inhibition (% PPI) for each prepulse intensity was calculated as the percent decrease in the mean startle amplitude in response to a given prepulse and 120 dB startle stimulus relative to the mean startle amplitude in response to the 120 dB startle stimulus alone. The % PPI was then calculated for each animal as the mean % PPI across all four prepulse intensities. […]

SMILES: O=C(NCCO)c1cccc2c1CCN2c1cc(Cc2cccc(C(F)(F)F)c2)ccn1 [Compound 13, N-(2-Hydroxyethyl)-1-(4-(3-(trifluoromethyl)benzyl)pyridin-2-yl)indoline-4-carboxamide]
- haloperidol-induced increase in prolactin levels (male Sprague Dawley rats; Compound 13 10 mg/kg P.O., at a low dose of haloperidol, FIG. 28B): reversed
- prolactin levels (male Sprague Dawley rats; basal prolactin release, haloperidol 0.1 and 1 mg/kg P.O., Compound 13 1, 10, and 100 mg/kg P.O., FIG. 28A): decreased
- basal locomotor activity (male Sprague-Dawley rats [1]): significant reduction in basal locomotor activity was only seen at the highest dose
- Brain/Plasma Ratio [2]: 3.51
- amphetamine-stimulated locomotion (male Sprague-Dawley rats [3]): blocked amphetamine-stimulated locomotion at several doses
- MK-801-induced disruption in % PPI in 'good performers' (male Sprague-Dawley rats [4]; MK-801 0.3 mg/kg SC): reversed
- amphetamine-induced disruption in % PPI in 'good performers' (male Sprague-Dawley rats [4]; amphetamine 0.5 mg/kg SC): reversed
